Measurements taken from ChEMBL document CHEMBL4229455, “Synthesis and anticancer activity of novel bisindolylhydroxymaleimide derivatives with potent GSK-3 kinase inhibition” (Bioorg Med Chem, 2018).

How the values were obtained:
NCI-H460 = experiment: Cytotoxicity against human NCI-H460 cells assessed as cell growth at 10 uM after 48 hrs by SRB assay relative to control; assay type: functional; details: NCI-H460, 48 h, read-out: Activity
[1] = target: Glycogen synthase kinase-3 (Sus scrofa, UniProt B2LUN4+I6LNT8); experiment: Inhibition of domestic porcine brain full length GSK-3alpha/beta using GS-1 as substrate in presence of [gamma-33P]ATP; set-up: species or system Sus scrofa domesticus
[2] = target: Dual specificity tyrosine-phosphorylation-regulated kinase 1A (Rattus norvegicus, UniProt Q63470); experiment: Inhibition of recombinant rat DYRK1A kinase domain expressed in bacteria using KKISGRLSPIMTEQ as substrate in presence of [gamma-33P]ATP
OVCAR-3 = experiment: Cytotoxicity against human OVCAR3 cells assessed as cell growth at 10 uM after 48 hrs by SRB assay relative to control; assay type: functional; details: OVCAR-3, 48 h, read-out: Activity
[3] = target: Receptor-interacting serine/threonine-protein kinase 3 (Homo sapiens, UniProt Q9Y572); experiment: Inhibition of recombinant full length human RIPK3 expressed in baculovirus infected Sf9 insect cells assessed as residual activity at 10 uM using MBP as substrate in presence of [gamma-33P]ATP
[4] = target: T1, Serine/threonine-protein kinase haspin (Homo sapiens) (UniProt Q8TF76); experiment: Inhibition of recombinant human haspin kinase domain expressed in bacteria assessed as residual activity at 10 uM using histone H3 (1 to 21 residues) peptide as substrate in presence of [gamma-33P]ATP
T1 sequence (whole entry): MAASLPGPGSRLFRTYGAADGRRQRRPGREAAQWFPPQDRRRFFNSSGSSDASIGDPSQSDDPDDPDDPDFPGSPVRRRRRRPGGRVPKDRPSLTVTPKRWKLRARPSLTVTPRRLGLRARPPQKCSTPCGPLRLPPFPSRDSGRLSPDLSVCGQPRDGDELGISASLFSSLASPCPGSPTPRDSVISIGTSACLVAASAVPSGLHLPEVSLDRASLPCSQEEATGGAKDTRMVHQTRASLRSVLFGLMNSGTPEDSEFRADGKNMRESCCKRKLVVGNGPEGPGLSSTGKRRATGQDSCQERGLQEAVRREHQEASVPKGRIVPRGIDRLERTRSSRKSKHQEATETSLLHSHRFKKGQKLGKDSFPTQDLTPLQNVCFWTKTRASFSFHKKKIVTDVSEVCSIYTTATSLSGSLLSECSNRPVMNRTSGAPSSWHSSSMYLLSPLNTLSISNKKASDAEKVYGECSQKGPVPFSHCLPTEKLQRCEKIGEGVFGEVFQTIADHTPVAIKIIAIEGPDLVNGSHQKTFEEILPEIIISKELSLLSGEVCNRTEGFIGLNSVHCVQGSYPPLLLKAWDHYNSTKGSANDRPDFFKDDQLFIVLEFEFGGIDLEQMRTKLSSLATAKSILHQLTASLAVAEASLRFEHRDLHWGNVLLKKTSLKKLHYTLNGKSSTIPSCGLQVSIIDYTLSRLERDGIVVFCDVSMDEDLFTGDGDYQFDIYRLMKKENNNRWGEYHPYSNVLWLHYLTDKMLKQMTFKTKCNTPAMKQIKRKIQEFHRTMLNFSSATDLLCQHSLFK

[5] = target: T2, Serine/threonine-protein kinase haspin (Homo sapiens, UniProt Q8TF76); experiment: Inhibition of recombinant human haspin kinase domain expressed in bacteria using histone H3 (1 to 21 residues) peptide as substrate in presence of [gamma-33P]ATP
T2 sequence (Q8TF76 whole entry): T1 sequence (whole entry)

DU-145 = experiment: Cytotoxicity against human DU145 cells assessed as cell growth at 10 uM after 48 hrs by SRB assay relative to control; assay type: functional; details: DU-145, 48 h, read-out: Activity
HCC 2998 = experiment: Cytotoxicity against human HCC2998 cells assessed as cell growth at 10 uM after 48 hrs by SRB assay relative to control; assay type: functional; details: HCC 2998, 48 h, read-out: Activity
A549 = experiment: Cytotoxicity against human A549 cells assessed as cell growth at 10 uM after 48 hrs by SRB assay relative to control; assay type: functional; details: A549, 48 h, read-out: Activity
SN12C = experiment: Cytotoxicity against human SN12C cells assessed as cell growth at 10 uM after 48 hrs by SRB assay relative to control; assay type: functional; details: read-out: Activity
Aurora kinase B = Aurora kinase B (Homo sapiens, UniProt Q96GD4); experiment: Inhibition of recombinant full length human aurora B expressed in baculovirus infected Sf9 insect cells assessed as residual activity at 10 uM using MBP as substrate in presence of [gamma-33P]ATP
M14 = experiment: Cytotoxicity against human M14 cells assessed as cell growth at 10 uM after 48 hrs by SRB assay relative to control; assay type: functional; details: M14, 48 h, read-out: Activity
[6] = target: Cyclin-dependent kinase 5/CDK5 activator 1 (Homo sapiens, UniProt Q00535); experiment: Inhibition of recombinant full length human CDK5/p25 expressed in bacteria using histone H1 as substrate in presence of [gamma-33P]ATP
NCI/ADR-RES = experiment: Cytotoxicity against human NCI-ADR-RES cells assessed as cell growth at 10 uM after 48 hrs by SRB assay relative to control; assay type: functional; details: read-out: Activity
TK-10 = experiment: Cytotoxicity against human TK10 cells assessed as cell growth at 10 uM after 48 hrs by SRB assay relative to control; assay type: functional; details: TK-10, 48 h, read-out: Activity
SR = experiment: Cytotoxicity against human SR cells assessed as cell growth at 10 uM after 48 hrs by SRB assay relative to control; assay type: functional; details: read-out: Activity
RPMI-8226 = experiment: Cytotoxicity against human RPMI8226 cells assessed as cell growth at 10 uM after 48 hrs by SRB assay relative to control; assay type: functional; details: RPMI-8226, 48 h, read-out: Activity
SK-MEL-2 = experiment: Cytotoxicity against human SK-MEL-2 cells assessed as cell growth at 10 uM after 48 hrs by SRB assay relative to control; assay type: functional; details: SK-MEL-2, 48 h, read-out: Activity
SNB-75 = experiment: Cytotoxicity against human SNB75 cells assessed as cell growth at 10 uM after 48 hrs by SRB assay relative to control; assay type: functional; details: SNB-75, 48 h, read-out: Activity
SK-OV-3 = experiment: Cytotoxicity against human SKOV3 cells assessed as cell growth at 10 uM after 48 hrs by SRB assay relative to control; assay type: functional; details: SK-OV-3, 48 h, read-out: Activity
MDA-MB-468 = experiment: Cytotoxicity against human MDA-MB-468 cells assessed as cell growth at 10 uM after 48 hrs by SRB assay relative to control; assay type: functional; details: MDA-MB-468, 48 h, read-out: Activity
RXF 393 = experiment: Cytotoxicity against human RXF393 cells assessed as cell growth at 10 uM after 48 hrs by SRB assay relative to control; assay type: functional; details: RXF 393, 48 h, read-out: Activity
BT-549 = experiment: Cytotoxicity against human BT549 cells assessed as cell growth at 10 uM after 48 hrs by SRB assay relative to control; assay type: functional; details: BT-549, 48 h, read-out: Activity

Sequence of Aurora kinase B (Q96GD4 whole entry): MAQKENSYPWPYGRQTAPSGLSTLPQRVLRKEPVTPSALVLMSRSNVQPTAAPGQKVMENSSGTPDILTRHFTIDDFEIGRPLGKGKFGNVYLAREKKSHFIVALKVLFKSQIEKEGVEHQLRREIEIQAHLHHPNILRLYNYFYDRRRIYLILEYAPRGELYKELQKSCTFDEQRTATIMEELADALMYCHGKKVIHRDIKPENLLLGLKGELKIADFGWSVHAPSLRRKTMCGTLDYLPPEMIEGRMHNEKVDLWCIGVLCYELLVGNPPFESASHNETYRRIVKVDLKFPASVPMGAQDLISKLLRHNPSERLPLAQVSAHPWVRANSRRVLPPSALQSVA
Sequence of Cyclin-dependent kinase 5/CDK5 activator 1 (Q00535 whole entry): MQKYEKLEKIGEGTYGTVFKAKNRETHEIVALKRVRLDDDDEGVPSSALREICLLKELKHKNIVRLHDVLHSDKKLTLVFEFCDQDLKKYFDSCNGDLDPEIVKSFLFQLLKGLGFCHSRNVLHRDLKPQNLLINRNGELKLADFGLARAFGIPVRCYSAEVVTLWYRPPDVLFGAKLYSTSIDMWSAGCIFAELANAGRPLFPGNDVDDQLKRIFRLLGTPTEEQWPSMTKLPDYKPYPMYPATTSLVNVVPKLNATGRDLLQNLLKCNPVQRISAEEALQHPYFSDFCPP
Sequence of Cyclin-dependent kinase 5/CDK5 activator 1 (Q15078 whole entry, further chain): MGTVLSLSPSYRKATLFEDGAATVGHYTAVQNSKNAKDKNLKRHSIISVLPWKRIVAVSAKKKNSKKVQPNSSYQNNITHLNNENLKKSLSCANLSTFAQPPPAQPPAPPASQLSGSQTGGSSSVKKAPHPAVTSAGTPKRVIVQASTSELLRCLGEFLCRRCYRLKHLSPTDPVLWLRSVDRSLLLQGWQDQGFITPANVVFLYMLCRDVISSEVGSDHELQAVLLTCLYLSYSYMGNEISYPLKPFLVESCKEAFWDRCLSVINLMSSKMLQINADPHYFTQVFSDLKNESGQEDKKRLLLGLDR
Sequence of Receptor-interacting serine/threonine-protein kinase 3 (Q9Y572 whole entry, looked up, the tested form may be a part): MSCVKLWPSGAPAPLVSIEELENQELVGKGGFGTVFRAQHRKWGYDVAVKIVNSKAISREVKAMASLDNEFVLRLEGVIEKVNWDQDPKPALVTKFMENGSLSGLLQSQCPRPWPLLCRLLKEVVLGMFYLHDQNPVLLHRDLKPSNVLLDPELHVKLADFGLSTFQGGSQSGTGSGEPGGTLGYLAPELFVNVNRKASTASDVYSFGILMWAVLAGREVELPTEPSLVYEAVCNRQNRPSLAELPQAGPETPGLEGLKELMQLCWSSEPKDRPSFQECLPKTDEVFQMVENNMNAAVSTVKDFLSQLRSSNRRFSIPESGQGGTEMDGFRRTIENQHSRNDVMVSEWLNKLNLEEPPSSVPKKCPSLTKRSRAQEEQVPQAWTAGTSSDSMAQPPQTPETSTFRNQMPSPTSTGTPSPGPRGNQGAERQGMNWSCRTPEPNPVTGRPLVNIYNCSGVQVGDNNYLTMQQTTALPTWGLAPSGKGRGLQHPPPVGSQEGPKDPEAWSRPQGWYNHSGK

| Structure (SMILES) | growth at 10 µM (NCI-H460) | IC50 [1] | IC50 [2] | growth at 10 µM (OVCAR-3) | Activity [3] | Activity [4] | IC50 [5] | growth at 10 µM (DU-145) | growth at 10 µM (HCC 2998) | growth at 10 µM (A549) | growth at 10 µM (SN12C) | Activity (Aurora kinase B) | growth at 10 µM (M14) | IC50 [6] | growth at 10 µM (NCI/ADR-RES) | growth at 10 µM (TK-10) | growth at 10 µM (RPMI-8226) | growth at 10 µM (SK-MEL-2) | growth at 10 µM (SNB-75) | growth at 10 µM (SK-OV-3) | other results |
| --- | --- | --- | --- | --- | --- | --- | --- | --- | --- | --- | --- | --- | --- | --- | --- | --- | --- | --- | --- | --- | --- |
| Cn1cc(C2=C(c3cn(C)c4ncccc34)C(=O)NC2=O)c2ccccc21 | 19 to 19.5% | 0.03 µM | > 10 µM | 25 to 50.2% | 79% | 101% | > 10 µM | 36 to 63.2% | 30 to 58.9% | 21 to 28.8% | 4 to 30.7% | 84% | 7 to 17.5% | 0.8 µM | 34 to 53.5% | 26.3 to 33% | 45.4% | – | – | – | growth at 10 µM (SR): 7 to 12.1% |
| N#CCCCCCn1cc(C2=C(c3cn(CCCCCC#N)c4ccccc34)C(=O)NC2=O)c2ccccc21 | 86.8% | 0.12 µM | 0.62 µM | 72.7% | 100% | 134% | > 10 µM | 100% | 107% | 85.6% | 87.7% | 83% | 125% | > 10 µM | 79% | 101% | 86.8% | 96.5% | 47.2% | 57% | growth at 10 µM (MDA-MB-468): 63.3%; growth at 10 µM (RXF 393): 62.1%; growth at 10 µM (BT-549): 73.6% |
| Cn1cc(C2=C(c3cn(CCCCCC#N)c4ccccc34)C(=O)N(O)C2=O)c2ccccc21 | 99.3% | 0.27 µM | 5 µM | 93.6% | 105% | 114% | > 10 µM | 106% | 111% | 95.8% | 102% | 71% | 100% | > 10 µM | 102% | 116% | 71.2% | 94.1% | 68% | 86.5% | growth at 10 µM (MDA-MB-468): 87.5%; growth at 10 µM (RXF 393): 90%; growth at 10 µM (BT-549): 81.4%; growth at 10 µM (SR): 67.2% |
| N#CCCCCCn1cc(C2=C(c3cn(CCCCCC#N)c4ccccc34)C(=O)N(O)C2=O)c2ccccc21 | 28 to 72.7% | 0.75 µM | > 10 µM | 13 to 50.6% | 109% | 99% | > 10 µM | 80 to 101% | 59 to 99.6% | 51 to 73.6% | 47 to 88.2% | 75% | 28 to 73.4% | > 10 µM | 62 to 96.3% | 70 to 84.2% | 39.1% | 8 to 68.7% | 14 to 67.7% | 45 to 78.5% | growth at 10 µM (MDA-MB-468): 3 to 58%; growth at 10 µM (RXF 393): 2 to 73.2%; growth at 10 µM (BT-549): 16 to 56% |
